# Legend:
# Type in all cases: biochemical
# BaBgl3A = molecular target: T1, BaBgl3A (Bifidobacterium adolescentis, UniProt A1A2P2); assay: TLC and HPLC of products; settings: optimum pH, 37 °C, 2 h; 5 mg/ml substrate
# T1 construct: gene BAD_1194; GH3; N-terminus from primer MSENTY
# T1 sequence (A1A2P2 1-751): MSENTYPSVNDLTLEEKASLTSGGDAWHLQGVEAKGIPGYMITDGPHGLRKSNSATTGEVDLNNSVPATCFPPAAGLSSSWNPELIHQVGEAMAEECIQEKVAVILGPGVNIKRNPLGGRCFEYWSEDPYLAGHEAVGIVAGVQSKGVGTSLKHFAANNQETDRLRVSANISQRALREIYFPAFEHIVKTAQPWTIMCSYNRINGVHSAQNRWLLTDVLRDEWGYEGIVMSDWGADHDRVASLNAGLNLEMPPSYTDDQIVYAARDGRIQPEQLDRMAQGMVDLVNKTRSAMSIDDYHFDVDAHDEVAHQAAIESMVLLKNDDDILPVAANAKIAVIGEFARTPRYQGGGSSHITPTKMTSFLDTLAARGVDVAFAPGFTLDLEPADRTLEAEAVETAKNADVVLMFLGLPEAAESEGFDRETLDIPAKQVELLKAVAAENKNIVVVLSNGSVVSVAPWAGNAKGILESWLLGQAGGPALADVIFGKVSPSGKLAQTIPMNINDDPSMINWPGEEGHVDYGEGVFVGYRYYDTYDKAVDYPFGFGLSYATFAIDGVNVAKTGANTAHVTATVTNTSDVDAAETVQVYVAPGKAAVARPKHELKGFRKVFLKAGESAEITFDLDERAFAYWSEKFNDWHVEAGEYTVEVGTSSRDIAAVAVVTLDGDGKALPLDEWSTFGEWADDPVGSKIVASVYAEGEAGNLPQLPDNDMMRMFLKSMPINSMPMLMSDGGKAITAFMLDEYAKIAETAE
# BaBgl3B [1] = molecular target: T2, BaBgl3B (Bifidobacterium adolescentis, UniProt A1A2P5); assay: pNPβGlc hydrolysis, absorbance […] nm
# T2 construct: gene bglX; GH3; N-terminus from primer MSSCGC
# T2 sequence (A1A2P5 1-809): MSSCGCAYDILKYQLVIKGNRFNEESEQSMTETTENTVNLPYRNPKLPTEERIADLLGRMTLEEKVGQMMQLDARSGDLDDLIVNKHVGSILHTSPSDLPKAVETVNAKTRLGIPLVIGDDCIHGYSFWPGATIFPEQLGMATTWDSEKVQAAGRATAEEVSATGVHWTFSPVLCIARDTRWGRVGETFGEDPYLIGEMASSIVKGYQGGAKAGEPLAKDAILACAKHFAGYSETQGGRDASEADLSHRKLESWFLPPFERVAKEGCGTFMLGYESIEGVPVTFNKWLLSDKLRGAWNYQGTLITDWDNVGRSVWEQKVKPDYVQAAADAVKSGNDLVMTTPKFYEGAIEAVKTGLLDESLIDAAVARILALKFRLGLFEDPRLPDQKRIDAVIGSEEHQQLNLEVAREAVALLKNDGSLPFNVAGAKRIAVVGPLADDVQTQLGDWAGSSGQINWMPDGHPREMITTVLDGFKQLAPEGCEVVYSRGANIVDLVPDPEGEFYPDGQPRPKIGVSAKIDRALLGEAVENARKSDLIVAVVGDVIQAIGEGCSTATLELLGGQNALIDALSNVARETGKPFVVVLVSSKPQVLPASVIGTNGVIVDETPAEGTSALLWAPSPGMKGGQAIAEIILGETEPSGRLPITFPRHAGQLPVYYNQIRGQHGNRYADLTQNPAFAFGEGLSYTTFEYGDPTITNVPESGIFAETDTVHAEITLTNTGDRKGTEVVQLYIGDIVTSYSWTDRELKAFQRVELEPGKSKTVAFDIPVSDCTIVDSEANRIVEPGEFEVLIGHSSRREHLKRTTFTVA
# BaBgl1A [2] = molecular target: T3, BaBgl1A (Bifidobacterium adolescentis, UniProt A1A2Y5); assay: pNPβGlc hydrolysis, absorbance […] nm
# T3 construct: gene BAD_1287; GH1; N-terminus from primer MKEQYE
# T3 sequence (A1A2Y5 1-391): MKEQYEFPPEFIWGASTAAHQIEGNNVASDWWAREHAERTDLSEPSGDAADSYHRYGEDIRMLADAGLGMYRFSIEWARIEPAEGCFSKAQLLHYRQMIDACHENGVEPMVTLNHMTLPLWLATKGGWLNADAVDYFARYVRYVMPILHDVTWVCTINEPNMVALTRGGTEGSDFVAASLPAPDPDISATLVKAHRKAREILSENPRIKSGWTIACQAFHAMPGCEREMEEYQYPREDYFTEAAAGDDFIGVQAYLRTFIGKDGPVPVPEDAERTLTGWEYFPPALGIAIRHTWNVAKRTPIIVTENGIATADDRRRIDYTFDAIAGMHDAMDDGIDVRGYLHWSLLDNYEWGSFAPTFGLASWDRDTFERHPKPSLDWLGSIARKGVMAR
# BaBgl1A [3] = molecular target: T3, BaBgl1A; assay: pNPβGlc hydrolysis, absorbance […] nm; settings: competitive; pNPβGlc substrate; optimum pH 6.0, 30 °C
# BaBgl3B [4] = molecular target: T2, BaBgl3B; assay: pNPβGlc hydrolysis, absorbance […] nm; settings: competitive; pNPβGlc substrate; optimum pH 6.5, 50 °C
smiles,measurement,setting,value
CC(C)=CCC[C@](C)(O[C@@H]1O[C@H](CO[C@@H]2O[C@H](CO)[C@@H](O)[C@H](O)[C@H]2O)[C@@H](O)[C@H](O)[C@H]1O)[C@H]1CC[C@]2(C)[C@@H]1[C@H](O)C[C@@H]1[C@@]3(C)CC[C@H](O[C@@H]4O[C@H](CO)[C@@H](O)[C@H](O)[C@H]4O[C@@H]4O[C@H](CO)[C@@H](O)[C@H](O)[C@H]4O)C(C)(C)[C@@H]3CC[C@]12C [Rb1],TLC and HPLC of products,BaBgl3A,Rb1 could be converted into Rd and Gyp XVII by BaBgl3A
OC[C@H]1OC(O)[C@@H](O)[C@@H](O)[C@@H]1O (some centres unmarked) [mannose],inhibition at 1 M,BaBgl3B [1],> 70%
same,inhibition at 1 M,BaBgl1A [2],> 70%
OCC1(O)OC[C@@H](O)[C@@H](O)[C@@H]1O (some centres unmarked) [fructose],% inhibition,BaBgl1A [3],mannose and fructose acted as competitive inhibitors for BaBgl1A and BaBgl3B
same,% inhibition,BaBgl3B [4],mannose and fructose acted as competitive inhibitors for BaBgl1A and BaBgl3B

# Reference: paper PMC9024363, “Study on the Biochemical Characterization and Selectivity of Three β-Glucosidases From Bifidobacterium adolescentis ATCC15703” (Frontiers in Microbiology, 2022)
